How the values were obtained:
Type in all cases: cell-based
[1] = tested on: Proteus mirabilis; assay: MIC against Gram-negative bacteria: Proteus mirabilis; settings: 5×10^5 CFU/mL; for MIC against P. mirabilis: 96-well plate, 37° C., 10 h; for MIC P. mirabilis: 10 h cultivation at 37° C., two-fold serial dilution
How it was run: (§1)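 Broth microdilution, LB medium, final inoculum 5×10^5 CFU/mL from McFarland 0.5 cultures. Recombinant human EGF domain proteins tested in two-fold steps, n=3. MIC: lowest concentration, no growth.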

[2] = tested on: Citrobacter diversus; assay: MIC against Gram-negative bacteria: Citrobacter diversus; settings: 5×10^5 CFU/mL; for MIC against C. diversus: 96-well plate, 37° C., 10 h; for MIC C. diversus: 10 h cultivation at 37° C., two-fold serial dilution
How it was run: as §1

[3] = tested on: Pseudomonas aeruginosa; assay: MIC against Gram-negative bacteria: Pseudomonas aeruginosa; settings: 5×10^5 CFU/mL; for MIC against P. aeruginosa: 96-well plate, 37° C., 10 h; for MIC P. aeruginosa: 10 h cultivation at 37° C., two-fold serial dilution
How it was run: as §1

[4] = tested on: Proteus vulgaris; assay: MIC against Gram-negative bacteria: Proteus vulgaris; settings: 5×10^5 CFU/mL; for MIC against P. vulgaris: 96-well plate, 37° C., 10 h; for MIC P. vulgaris: 10 h cultivation at 37° C., two-fold serial dilution
How it was run: as §1

[5] = tested on: E. coli DH5α; assay: Antibacterial activity: MIC and growth curve against E. coli DH5α in 96-well plate; settings: minimal inhibitory concentration against E. coli DH5α; 96-well plate, 5×10^5 CFU/mL, 37° C., judged after 8 h
How it was run: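 MIC taken as lowest protein level with no bacterial growth, tracked by A600 every 30 min during 37 °C, 175 rpm culture. Two-fold protein series 50-12.5 μg/mL final, triplicate wells, against 5×10^5 CFU/mL of LB-washed mid-log cells.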

[6] = tested on: Aeromonas hydrophila; assay: MIC against Gram-negative bacteria: Aeromonas hydrophila; settings: 5×10^5 CFU/mL; for MIC against A. hydrophila: 96-well plate, 37° C., 10 h; for MIC A. hydrophila: 10 h cultivation at 37° C., two-fold serial dilution
How it was run: as §1

[7] = tested on: Serratia marcescens; assay: MIC against Gram-negative bacteria: Serratia marcescens; settings: 5×10^5 CFU/mL; for MIC against S. marcescens: 96-well plate, 37° C., 10 h; for MIC S. marcescens: 10 h cultivation at 37° C., two-fold serial dilution
How it was run: as §1

[8] = tested on: Klebsiella pneumonia; assay: MIC against Gram-negative bacteria: Klebsiella pneumonia; settings: 5×10^5 CFU/mL; for MIC against K. pneumonia: 96-well plate, 37° C., 10 h; for MIC K. pneumonia: 10 h cultivation at 37° C., two-fold serial dilution
How it was run: as §1

[9] = tested on: E. coli BL21; assay: MIC against Gram-negative bacteria: E. coli BL21; settings: 5×10^5 CFU/mL; for MIC against E. coli BL21: 96-well plate, 37° C., 10 h; for MIC E. coli BL21: 10 h cultivation at 37° C., two-fold serial dilution
How it was run: as §1

[10] = tested on: Moraxella catarrhalis; assay: MIC against Gram-negative bacteria: Moraxella catarrhalis; settings: 5×10^5 CFU/mL; for MIC against M. catarrhalis: 96-well plate, 37° C., 10 h; for MIC M. catarrhalis: 10 h cultivation at 37° C., two-fold serial dilution
How it was run: as §1

[11] = tested on: Enterobacter cloacae; assay: MIC against Gram-negative bacteria: Enterobacter cloacae; settings: 5×10^5 CFU/mL; for MIC against E. cloacae: 96-well plate, 37° C., 10 h; for MIC E. cloacae: 10 h cultivation at 37° C., two-fold serial dilution
How it was run: as §1

Row | Substance | MIC against P. mirabilis ([1]; Proteus mirabilis) | MIC against C. diversus ([2]; Citrobacter diversus) | MIC against P. aeruginosa ([3]; Pseudomonas aeruginosa) | MIC against P. vulgaris ([4]; Proteus vulgaris) | MIC [5] | MIC against A. hydrophila ([6]; Aeromonas hydrophila) | MIC against S. marcescens ([7]; Serratia marcescens) | MIC against K. pneumonia ([8]; Klebsiella pneumonia) | MIC against E. coli BL21 ([9]; E. coli BL21) | MIC against M. catarrhalis ([10]; Moraxella catarrhalis) | MIC against E. cloacae ([11]; Enterobacter cloacae) | MIC against P. mirabilis [1] | MIC against C. diversus [2] | MIC against P. aeruginosa [3] | MIC against P. vulgaris [4] | MIC against A. hydrophila [6] | MIC against S. marcescens [7] | MIC against K. pneumonia [8] | MIC against E. coli BL21 [9] | MIC against M. catarrhalis [10] | further results
1 | PRT1310 (EINSCLIHHGGCHIHAECIPTGPQQVSCSCREGYSGDGIRTCE; listed as Homo sapiens) | 25 µg/mL | 25 µg/mL | 12.5 µg/mL | 12.5 µg/mL | 12.5 µg/mL | 12.5 µg/mL | 25 µg/mL | 25 µg/mL | 50 µg/mL | 50 µg/mL | 50 µg/mL | – | – | – | – | – | – | – | – | – | –
2 | PRT503 (CACPLTIASNNFSPTCHLNDGDEVVCDWCAPGYSGAWCERCADGYYGNPTVPGESCVP; listed as Homo sapiens) | – | – | – | – | 12.5 µg/mL | – | – | – | – | – | – | 50 µg/mL | 50 µg/mL | 50 µg/mL | 12.5 µg/mL | 25 µg/mL | 50 µg/mL | 25 µg/mL | 25 µg/mL | 12.5 µg/mL | MIC against E. cloacae [11]: 12.5 µg/mL
3 | PRT1192 (DIDECASNPCAAGGTCVDQVDGFECICPEQWVGATCQ; listed as Homo sapiens) | – | – | – | – | 25 µg/mL | – | – | – | – | – | – | – | – | – | – | – | – | – | – | – | MIC P. mirabilis [1]: 12.5 µg/mL; MIC C. diversus [2]: 50 µg/mL; MIC P. aeruginosa [3]: 25 µg/mL; MIC P. vulgaris [4]: 50 µg/mL; MIC A. hydrophila [6]: 12.5 µg/mL; MIC S. marcescens [7]: 25 µg/mL; MIC K. pneumonia [8]: 50 µg/mL; MIC E. coli BL21 [9]: 12.5 µg/mL; MIC M. catarrhalis [10]: 25 µg/mL; MIC E. cloacae [11]: 25 µg/mL
4 | PRT1175 (AEHACLSDPCHNRGSCKETSLGFECECSPGWTGPTCS; listed as Homo sapiens) | – | – | – | – | 12.5 µg/mL | – | – | – | – | – | – | – | – | – | – | – | – | – | – | – | MIC P. mirabilis [1]: 25 µg/mL; MIC C. diversus [2]: 25 µg/mL; MIC P. aeruginosa [3]: 50 µg/mL; MIC P. vulgaris [4]: 50 µg/mL; MIC A. hydrophila [6]: 50 µg/mL; MIC S. marcescens [7]: 25 µg/mL; MIC K. pneumonia [8]: 25 µg/mL; MIC E. coli BL21 [9]: 25 µg/mL; MIC M. catarrhalis [10]: 12.5 µg/mL; MIC E. cloacae [11]: 12.5 µg/mL
5 | PRT482 (ECIDDETEEICGGHGKCYCGNCYCKAGWHGDKCE; listed as Homo sapiens) | – | – | – | – | 50 µg/mL | – | – | – | – | – | – | 25 µg/mL | 25 µg/mL | 50 µg/mL | 50 µg/mL | 50 µg/mL | 25 µg/mL | 12.5 µg/mL | 12.5 µg/mL | 12.5 µg/mL | MIC against E. cloacae [11]: 25 µg/mL
6 | PRT1237 (LGPGCLDNCRGHGDCLREQCICDPGYSGPNCY; listed as Homo sapiens) | 25 µg/mL | 25 µg/mL | 25 µg/mL | 12.5 µg/mL | 12.5 µg/mL | 12.5 µg/mL | 50 µg/mL | 12.5 µg/mL | 12.5 µg/mL | 50 µg/mL | 12.5 µg/mL | – | – | – | – | – | – | – | – | – | –

Source: patent US9833497B2, “Human originated EGF domain proteins and use of the same” (CHENGDU SOURCEBIO LIMITED-LIABILITY COMPANY, priority 2013, dated 2017)
